Patent US5981748A, “Synthesis of optically pure compounds useful as GARFT inhibitors and their intermediates” (Agouron Pharmaceuticals, Inc., priority 1998, dated 1999)

Target: catalytic domain of the human GARFT (Homo sapiens, UniProt P22102)
Assay: biochemical
Method: Reactions mixtures were prepared containing the catalytic domain of the human GARFT, 0-250 nM test compound, 20 μM glycinamide ribonucleotide (GAR), 10 or 20 μM N^10 -formyl-5,8-dideazafolate (FDDF), 50 mM HEPES-KOH (pH 7.5), and 50 mM KCl. The reaction was initiated with the addition of enzyme to a final concentration of 11 nM, followed by monitoring of the increase in absorbance at 294 nm at 20° C. (ε294 =18.9 mM^-1 cm^-1).
The GARFT inhibition constant (Ki) was determined from the dependence of the steady-state catalytic rate on the inhibitor and substrate concentration. […] The Michaelis constant for FDDF, Km, was determined independently by the dependence of the catalytic rate on the FDDF concentration. Data for both the Km and Ki determinations were fitted by non-linear methods to the Michaelis equation or to the Michaelis equation for competitive inhibition, as appropriate.

Sequence of catalytic domain of the human GARFT (P22102 810-1010 limits assumed): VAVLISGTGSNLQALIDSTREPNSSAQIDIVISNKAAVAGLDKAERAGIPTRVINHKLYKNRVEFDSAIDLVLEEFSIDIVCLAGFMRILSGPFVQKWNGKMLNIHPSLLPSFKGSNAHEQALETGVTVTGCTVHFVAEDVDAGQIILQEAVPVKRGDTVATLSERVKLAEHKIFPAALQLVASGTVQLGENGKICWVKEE

Nc1nc2c(c(=O)[nH]1)S[C@H](CCc1ccc(C(=O)N[C@@H](CCC(=O)O)C(=O)O)s1)CN2 [Compound 15, 2-(5-[2-(2-Amino-4-oxo-4,6,7,8-tetrahydro-3H-pyrimido[5,4-b][1,4]thiazin-6(R)-yl)-ethyl]-thiophene)-2-L-glutamic acid]
Ki: 3 nM
